{"source": "patent US20060189642A1", "about": "“Synergistic combination comprising roflumilast and an anticholinergic agent selected from ipratropium, oxitropium and tiotropium salts for the treatment of respiratory diseases” (ALTANA PHARMA AG, priority 2003, published 2006)", "tested_on": "methacholine-induced bronchoconstriction in guinea pigs", "experiment": "Inhibition of methacholine-induced bronchoconstriction in anaesthetized, mechanically ventilated guinea pigs", "assay_type": "in vivo, guinea pig", "procedure": "Inhibition of Methacholine-induced Bronchoconstriction in Guinea Pigs by ROFLUMILAST in combination with tiotropium-bromide\nTo assess the inhibitory effect of tiotropium-bromide, ROFLUMILAST, and the combination of both compounds on methacholine-induced bronchoconstriction in anaesthetized, mechanically ventilated guinea pigs.\nMale Dunkin Hartley guinea pigs, body weight 350-450 g when performing the experiments.\n75 min before methacholine-induced bronchospasm (at −75 min) animals were anaesthetized with urethane i.p. (1.2 g/kg). At −5 min for i.v. injections the right jugular vein and for ventilation the trachea was cannulated. At −45 min NaCl 0.9% or tiotropium-bromide was administered i.v. (1 μg/kg). At −30 min lactose (10 mg/kg) or ROFLUMILAST (4 mg/kg) mixed with lactose was administered intratracheally by a dry powder aerolizer. At −10 min pancuronium-bromide (1.5 mg/kg) was administered i.v. to abolish spontaneous breathing. Animals were mechanically ventilated with 60 breath/min and a tidal volume of 7 ml/kg. Dynamic lung compliance (COM) and airway conductance (CON) were calculated with the help of a computer system from airflow and ventilation pressure signals. At t=0 min methacholine was administered i.v. (60 μg/kg) to induce Bronchoconstriction.\nCOM and CON were determined up to 120 s after methacholine-induced bronchospasm. AUCs for 0 to 120s were determined. Inhibition was calculated based on the AUC data. Data are shown as mean±SEM. Results were taken to be significant if p<0.05 versus placebo (ANOVA and Dunnett's multiple comparison test)", "key": {"[1]": {"details": "male Dunkin Hartley guinea pigs, methacholine 60 μg/kg i.v., tiotropium-bromide 1 μg/kg i.v. at -45 min, ROFLUMILAST 4 mg/kg intratracheally at -30 min, inhibition versus placebo"}}, "data": [{"smiles": "C[N+]1(C)[C@@H]2C[C@@H](OC(=O)C(O)(c3cccs3)c3cccs3)C[C@H]1[C@@H]1O[C@@H]12", "note": "[tiotropium-bromide]", "values": [{"measurement": "Inhibition of methacholine-induced airway conductance (CON) decrease, based on AUC 0-120 s", "setting": "[1]", "value": 5.9, "unit": "%"}, {"measurement": "Inhibition of methacholine-induced dynamic lung compliance (COM) decrease, based on AUC 0-120 s", "setting": "[1]", "value": 12, "unit": "%"}, {"measurement": "Effect on methacholine-induced bronchospasm (in words)", "setting": "same doses, significant if p<0.05 versus placebo (ANOVA and Dunnett's test)", "value": "no significant effect"}]}]}
